Consider four molecules from US10899699B2, “Vinylogous phenethylamines as neurotransmitter releasers” (RESEARCH TRIANGLE INSTITUTE, priority 2016, dated 2021).

For one data set, the target named is T1, human 5-HT2A receptor (Homo sapiens, UniProt P28223).
T1 construct: expressed in transfected cells
Description: 5-HT2A calcium mobilization assay in HEK293 cells (agonist activity). It counts as cell-based. On the procedure:
(§1) BAT activity was measured using synaptosomes prepared from rat brain homogenates according to the protocol developed by Rothman and co-workers (Rothman, et al., Eur. J. Pharmacol. 2002, 447(1), 51). Compounds were first screened in uptake inhibition and release assays to determine the exact mode of drug action. Compounds active in both assays are releasers while compounds active only in the uptake inhibition assay are uptake inhibitors. Active compounds were then fully characterized by running 8-point concentration response curves in the assay corresponding to their mechanism of action. Substrate reversal experiments were conducted to validate substrate activity. The analogs were also tested for agonist activity at the serotonin-2 receptor subtypes (5-HT2A, 5-HT2B, 5-HT2C) using in vitro calcium mobilization assays in transfected HEK293 cells as previously described. These receptors are associated with the pharmacology of abused drugs, as 5-HT2A agonists are thought to be hallucinogenic while […] are associated with valvular heart disease and pulmonary hypertension; activity at these receptors would be considered off-target liabilities. On the other hand, agonists at 5-HT2C may be beneficial as potential pharmacotherapies for drug abuse and appetite suppression.
(§2) HEK293 cells stably expressing the human 5-HT2A receptor were used. The day before the assay, cells were plated into 96-well black-walled assay plates at 40,000 cells/well in DMEM-HG supplemented with 10% fetal bovine serum, 100 units of penicillin and streptomycin, and 15 mM HEPES. The cells were incubated overnight at 37° C., 5% CO2. Prior to the assay, Calcium 5 dye (Molecular Devices) was reconstituted according to the manufacturer instructions. The reconstituted dye was diluted 1:40 in pre-warmed (37° C.) assay buffer (1×HBSS, 20 mM HEPES, 2.5 mM probenecid, pH 7.4 at 37° C.). Growth medium was removed and the cells were gently washed with 100 μL of pre-warmed (37° C.) assay buffer. The cells were incubated for 45 minutes at 37° C., 5% CO2 in 200 μL of the diluted Calcium 5 dye. Serial dilutions of the test compounds were prepared in 1% DMSO/assay buffer, aliquoted into 96-well polypropylene plates, and warmed to 37° C. After the dye-loading incubation period, the cells were pre-treated with 25 μL of 9% DMSO/assay buffer and incubated for 15 min at 37° C. After the pre-treatment incubation period, the plate was read with a FlexStation® II (Molecular Devices). Calcium-mediated changes in fluorescence were monitored every 1.52 seconds over a 60 second time period, with the FlexStation® II adding 25 μL of test compound dilutions at the 19 second time point (excitation at 485 nm, detection at 525 nm). Peak kinetic reduction (SoftMax, Molecular Devices) relative fluorescent units (RFU) were plotted against compound concentration. Data were fit to the appropriate three-parameter logistic curve to generate EC50 values (GraphPad Prism 6.0, GraphPad Software, Inc., San Diego, Calif.). 5-HT2B and 5-HT2C calcium mobilization assays were run in the same manner with stable 5-HT2B and 5-HT2C HEK293 cells except that 35,000 cells/well were used instead of 40,000 cells/well.
On the technique in general: A change in cytosolic calcium serves as a functional read-out for many receptors and channels.

A further data set addresses T2, 5-HT2B (Homo sapiens, UniProt P41595).
T2 construct: expressed in transfected cells
Description: 5-HT2B calcium mobilization assay in HEK293 cells (agonist activity). It counts as cell-based. The protocol:
as §1, §2

The next data set addresses T3, 5-HT2C (Homo sapiens, UniProt P28335).
T3 construct: expressed in transfected cells
T3 sequence (P28335 33-458): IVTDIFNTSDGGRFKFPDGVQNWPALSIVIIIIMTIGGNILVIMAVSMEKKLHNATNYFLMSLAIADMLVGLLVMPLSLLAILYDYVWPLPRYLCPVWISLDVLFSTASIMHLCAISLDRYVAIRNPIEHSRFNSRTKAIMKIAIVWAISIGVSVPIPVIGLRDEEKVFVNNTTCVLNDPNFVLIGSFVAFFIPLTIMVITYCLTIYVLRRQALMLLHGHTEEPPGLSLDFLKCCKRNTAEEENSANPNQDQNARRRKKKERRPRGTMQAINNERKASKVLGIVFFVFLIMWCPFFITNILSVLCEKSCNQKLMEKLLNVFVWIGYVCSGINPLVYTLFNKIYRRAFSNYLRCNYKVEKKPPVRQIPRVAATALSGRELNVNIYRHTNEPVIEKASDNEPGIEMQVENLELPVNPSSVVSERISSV
The experiment in a line: 5-HT2C calcium mobilization assay in HEK293 cells (agonist activity). The data set is classed as cell-based. On the procedure:
as §1, §2

For data set [1] the following is noted: rhesus monkeys, chronic treatment; progressive-ratio, choice, second-order schedules; cited from earlier work.
For data set [2] the following is noted: double-blind, placebo-controlled clinical trial; cited from earlier work.
The target in data set [3] is T4, Dopamine Transporter (DAT) (Rattus norvegicus, UniProt P23977).
T4 construct: Synaptosomes were prepared from rat striatum for the DAT assays; from tissue; host or cells: rat striatum synaptosomes
Description: DAT release assay, rat brain synaptosomes. The data set is classed as biochemical. The note with it: release of [3H]MPP+ from rat striatum synaptosomes; mean±SD (n=3). The protocol:
as §1, with “Compounds active in both assays are releasers while compounds active only in the uptake inhibition assay are uptake inhibitors. Active compounds were then fully characterized by running 8-point concentration response curves in the assay corresponding to their mechanism of action.” left out
(§3) All animal studies were conducted in facilities fully accredited by the Association for the Assessment and Accreditation of Laboratory Animal Care (AAALAC) and experiments were performed in accordance with the Institutional Care and Use Committee (IACUC) of the National Institute on Drug Abuse Intramural Research Program (NIDA IRP). Rats were euthanized by CO2 narcosis, and brains were processed to yield synaptosomes as previously described (Rothman, R B, et al., Eur. J. Pharmacol. 2002, 447(1), 51.). Synaptosomes were prepared from rat striatum for the DAT assays, whereas synaptosomes were prepared from whole brain minus striatum and cerebellum for the NET and SERT assays.
(§4) For release assays, 9 nM [^3H]1-methyl-4-phenylpyridinium ([^3H]MPP+) was used as the radiolabeled substrate for DAT and NET, while 5 nM [^3H]5-HT was used as a substrate for SERT. All buffers used in the release assay methods contained 1 μM reserpine to block vesicular uptake of substrates. The selectivity of release assays was optimized for a single transporter by including unlabeled blockers to prevent the uptake of [^3H]MPP+ or [^3H]5-HT by competing transporters. Synaptosomes were preloaded with radiolabeled substrate in Krebs-phosphate buffer for 1 h (steady state). Release assays were initiated by adding 850 μL of preloaded synaptosomes to 150 μL of test drug. Release was terminated by vacuum filtration and retained radioactivity was quantified as described for uptake inhibition. Concentration-response curves were generated to yield EC50 values.
(§5) Substrate reversal experiments were conducted to validate substrate activity. The releasing ability of test compounds was tested at an EC80 concentration in the absence and presence of an uptake inhibitor (250 nM […] for DAT, 166 nM desipramine for NET, 100 nM fluoxetine for SERT).

For data set [4], the target named is T5, Serotonin Transporter (SERT) (Rattus norvegicus, UniProt P31652).
T5 construct: synaptosomes were prepared from whole brain minus striatum and cerebellum for the NET and SERT assays; from tissue; host or cells: rat whole brain minus striatum and cerebellum, synaptosomes
Description: SERT release assay, rat brain synaptosomes. It counts as biochemical. On the procedure:
as §1, with “Compounds active in both assays are releasers while compounds active only in the uptake inhibition assay are uptake inhibitors. Active compounds were then fully characterized by running 8-point concentration response curves in the assay corresponding to their mechanism of action.” left out
as §3, §4, §5

Data set [5] deals with Norepinephrine Transporter (NET) (Rattus norvegicus, UniProt Q9WTR4). It counts as biochemical. The note with it: read-out: EC50, (nM ± SD) NET; release of [3H]MPP+ from rat brain synaptosomes; mean±SD (n=3).
Data set [6] deals with Norepinephrine Transporter (NET). It counts as biochemical, rat.
Another data set has as its system cortical 5-HT. As to conditions: high doses; cited from earlier work.
For data set [7] the following is noted: rats; cited from earlier work.
The conditions of data set [8]: abstinent cocaine-dependent patients; cited from earlier work.
Setting [9] is: calcium mobilization, agonist, HEK293.

SMILES strings stand for the structures. Like-named read-outs stand apart in the source and are kept apart here.

T1 sequence (P28223 whole entry): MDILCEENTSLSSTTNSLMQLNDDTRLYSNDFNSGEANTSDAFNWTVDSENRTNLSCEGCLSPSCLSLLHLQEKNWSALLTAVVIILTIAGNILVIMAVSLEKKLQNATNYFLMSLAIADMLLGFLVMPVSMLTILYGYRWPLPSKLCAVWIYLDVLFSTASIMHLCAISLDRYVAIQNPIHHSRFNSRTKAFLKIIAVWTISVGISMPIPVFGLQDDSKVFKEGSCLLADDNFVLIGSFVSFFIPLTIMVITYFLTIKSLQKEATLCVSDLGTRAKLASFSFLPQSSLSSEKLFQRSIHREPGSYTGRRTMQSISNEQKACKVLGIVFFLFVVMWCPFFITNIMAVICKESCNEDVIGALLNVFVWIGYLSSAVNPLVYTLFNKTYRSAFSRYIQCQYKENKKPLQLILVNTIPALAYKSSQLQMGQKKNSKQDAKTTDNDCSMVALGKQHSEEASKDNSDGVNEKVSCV
T2 sequence (P41595 whole entry): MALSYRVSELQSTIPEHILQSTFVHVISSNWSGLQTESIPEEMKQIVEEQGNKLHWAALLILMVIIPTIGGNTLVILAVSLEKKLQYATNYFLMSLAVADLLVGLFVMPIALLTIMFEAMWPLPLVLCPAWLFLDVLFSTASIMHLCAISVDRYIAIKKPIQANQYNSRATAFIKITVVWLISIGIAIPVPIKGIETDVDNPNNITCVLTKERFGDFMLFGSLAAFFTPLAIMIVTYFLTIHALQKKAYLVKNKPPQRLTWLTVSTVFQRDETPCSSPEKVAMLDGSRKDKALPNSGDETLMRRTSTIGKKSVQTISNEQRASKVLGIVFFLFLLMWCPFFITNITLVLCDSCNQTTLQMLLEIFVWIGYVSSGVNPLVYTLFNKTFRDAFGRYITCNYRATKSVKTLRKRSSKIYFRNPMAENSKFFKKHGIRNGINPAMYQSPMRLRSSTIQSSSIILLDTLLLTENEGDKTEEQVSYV
T5 sequence (P31652 whole entry): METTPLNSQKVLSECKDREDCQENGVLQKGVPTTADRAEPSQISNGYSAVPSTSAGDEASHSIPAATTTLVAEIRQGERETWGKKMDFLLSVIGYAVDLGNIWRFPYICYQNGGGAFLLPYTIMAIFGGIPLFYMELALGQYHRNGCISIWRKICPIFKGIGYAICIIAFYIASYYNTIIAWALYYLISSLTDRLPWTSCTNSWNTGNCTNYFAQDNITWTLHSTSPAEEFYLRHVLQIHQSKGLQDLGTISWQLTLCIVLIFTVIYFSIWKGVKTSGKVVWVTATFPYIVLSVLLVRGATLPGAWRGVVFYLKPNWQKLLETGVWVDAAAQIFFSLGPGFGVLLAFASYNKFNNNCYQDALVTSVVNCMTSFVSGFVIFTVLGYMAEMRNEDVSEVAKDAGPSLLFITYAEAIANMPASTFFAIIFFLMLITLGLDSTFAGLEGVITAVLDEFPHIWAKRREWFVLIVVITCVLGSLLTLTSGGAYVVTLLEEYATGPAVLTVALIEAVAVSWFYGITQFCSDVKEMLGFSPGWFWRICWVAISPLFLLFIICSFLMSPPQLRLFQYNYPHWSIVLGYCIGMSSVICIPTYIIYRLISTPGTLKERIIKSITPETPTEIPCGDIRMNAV
T4 sequence (P23977 whole entry): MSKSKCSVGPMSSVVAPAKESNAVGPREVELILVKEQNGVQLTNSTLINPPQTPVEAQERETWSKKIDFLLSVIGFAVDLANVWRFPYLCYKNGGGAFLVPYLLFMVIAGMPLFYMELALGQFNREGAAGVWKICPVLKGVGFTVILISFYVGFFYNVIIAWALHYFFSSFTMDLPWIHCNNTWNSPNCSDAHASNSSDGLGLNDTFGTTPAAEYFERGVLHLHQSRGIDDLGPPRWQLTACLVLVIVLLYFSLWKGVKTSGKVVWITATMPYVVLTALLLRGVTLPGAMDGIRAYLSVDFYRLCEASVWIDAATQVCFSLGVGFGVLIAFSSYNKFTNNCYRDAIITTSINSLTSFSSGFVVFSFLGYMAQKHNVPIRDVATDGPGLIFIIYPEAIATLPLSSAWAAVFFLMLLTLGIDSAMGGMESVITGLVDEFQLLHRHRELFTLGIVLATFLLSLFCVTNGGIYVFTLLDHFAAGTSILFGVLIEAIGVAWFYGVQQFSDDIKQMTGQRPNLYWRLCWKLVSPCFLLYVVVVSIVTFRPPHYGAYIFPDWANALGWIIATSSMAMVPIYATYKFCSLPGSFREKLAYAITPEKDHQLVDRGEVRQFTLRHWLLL

Take `C[C@H](N)Cc1ccccc1` [compound 1, S(+)-amphetamine, reference compound]: the EC50 on human 5-HT2A receptor, at 5-HT2B and on 5-HT2C was more than 10000 nM throughout. Further, on human 5-HT2A receptor (setting [9]), the “5-HT2A EC50, (nM ± SEM)” value was “inactive”. Besides, the “5-HT2B EC50, (nM ± SEM)” value at 5-HT2B (setting [9]) is “inactive”. Moreover, the “5-HT2C EC50, (nM ± SEM)” value on 5-HT2C (setting [9]) was “inactive”. The “cocaine self-administration compared to food-maintained responding” value in [1] is listed as “selective dose-dependent decrease in cocaine self-administration”. Moreover, the cocaine use result in data set [2] is on record as “decrease in cocaine use”.
For `C[C@@H](N)C/C=C\c1ccccc1` [R-8, (1R,3Z)-1-Methyl-4-phenyl-but-3-enylamine], the EC50 in data set [3] was 1420 nM; in data set [4] (release of [3H]5-HT from rat brain synaptosomes, mean±SD (n=3)), 1160 ± 160 nM; in data set [5], 211 nM; on human 5-HT2A receptor (calcium mobilization, agonist, HEK293, read-out: 5-HT2A EC50, (nM ± SEM)) it was more than 10000 nM; at human 5-HT2A receptor (calcium mobilization, read-out: 5-HT2A EC50) it was more than 10000 nM; at 5-HT2B (calcium mobilization, agonist, HEK293, read-out: 5-HT2B EC50, (nM ± SEM)), more than 10000 nM. The EC50 at 5-HT2C (calcium mobilization, agonist, HEK293, read-out: 5-HT2C EC50, (nM ± SEM)) was more than 10000 nM. For the same molecule, the “potency for releasing 5-HT relative to DA (SERT/DAT selectivity)” value in [4] turned out to be 1.2 fold. The “selectivity for releasing NE relative to DA (NET compared to DAT)” value in data set [6] worked out at 6.7 fold.
As to `CC(N)Cc1ccc2ccccc2c1` (centres unmarked) [compound 2], in the data set with cortical 5-HT, the “depletion of cortical 5-HT” value is recorded as “do not cause depletion of cortical 5-HT”.
Regarding `CCNC(C)Cc1cccc(C(F)(F)F)c1` (centres unmarked) [fenfluramine], the cue-reinstated cocaine-seeking behavior entry in [7] was “dose-dependently attenuates cue-reinstated cocaine-seeking behavior”. In [8], the cocaine craving entry is listed as “significantly reduces cocaine craving”.

One may read the EC50 as the concentration at which the effect is half-maximal.
